Test results published in US8852876B2, “Label free biosensors and cells” (Corning Incorporated, priority 2008, dated 2014).

Columns and labels:
[1] = system: protease activated receptors PAR1 and PAR2; assay type: cell-based, human; settings: for Effect of pretreatment on trypsin-mediated DMR signal: 100 or 200 nM trypsin, modulators 10 μM
Description: (§1) Human epidermoid carcinoma A431 cells (American Type Cell Culture) were grown in Dulbecco's modified Eagle's medium (DMEM) supplemented with 10% fetal bovine serum (FBS), 4.5 g/liter glucose, 2 mM glutamine, and antibiotics. ˜3-7.5×10^4 cells at passage 3 to 5 suspended in 200 μl the DMEM medium containing 10% FBS were placed in each well of a 96 well microplate, and were cultured at 37° C. under air/5% CO2 until ˜95% confluency was reached (˜2-4 days).
(§2) The compound or PAR agonist solutions were made in 1×HBSS in order to match the refractive index between the cell medium and compound solution, thus minimizing the unwanted effect of bulk index change due to the introduction of compound solution which can temporarily overwhelms any DMR signal as it occurs.

[2] = system: endogenous GPCRs in A431 cells; assay: DMR optical biosensor profiling of GPCR agonists; assay type: cell-based, human; settings: quiescent A431; first class = Gq-type, second = Gs-type, third = Gi-type, fourth = no significant DMR
Description: Human epidermoid carcinoma A431 cells (American Type Cell Culture) were grown in Dulbecco's modified Eagle's medium (DMEM) supplemented with 10% fetal bovine serum (FBS), 4.5 g/liter glucose, 2 mM glutamine, and antibiotics. ˜3-7.5×10^4 cells at passage 3 to 5 suspended in 200 μl the DMEM medium containing 10% FBS were placed in each well of a 96 well microplate. Similarly ˜1-2×10^4 cells in 50 μl the growth medium were placed in each well of a 384 well microplate. After cell seeding, the cells were cultured at 37° C. under air/5% CO2 until ˜95% confluency was reached (˜2-4 days).
A Corning® Epic™ angular interrogation system with transverse magnetic or p-polarized TM0 mode was used for all studies. Several extra actions were taken to minimize the unwanted effects. First, to minimize the bulk index changes when a compound solution is introduced, 1×HBSS buffer without any probenecid was used to dilute all the compounds, whereas the DMEM buffer only was used to starve the cells. Secondly, to facilitate the cell responses as well as to rapidly reach a steady state when the sensor plates having cells were placed in the system at room temperature, the cells were pre-starved with the DMEM buffer without any FBS for a prolonged period of time (typically 20±2 hours), and the quiescent cells were directly used for assays without any wash.
For kinetics measurements, the cultured cells (˜95% confluency) were starved for about 20 hours with DMEM alone at 37° C. under air/5% CO2. Afterwards, the sensor microplate containing cells was placed into the optical system, and the cell responses were recorded before and after addition of a solution at room temperature. […] All studies were carried out at room temperature with the lid of the microplate on except for a short period of time (˜seconds) when the solution was introduced, in order to minimize the effect of temperature fluctuation and evaporative cooling. The unit of the responses indicated herein was a change in pixel of the central position of the resonant band of each sensor as imaged by a CCD camera; 1 unit equals to ˜5.82×10^−4 refractive index changes, based on an experimental normalization protocol, which uses the concentration-dependent responses of both glycerol and dimethyl sulfoxide.
The panel of agonists were used individually to stimulate quiescent A431 cells. The dose-dependent and kinetic responses were recorded and analyzed. In a typical kinetic measurement, the angular shift of resonant lights of each sensor induced by an agonist is monitored in real time and plotted as a function of time. An increased signal (P-DMR) means an increase in the amount of bio-molecules within the sensing volume (˜120 nm); conversely, a decreased signal (N-DMR) means a decrease in the amount of bio-molecules within the sensing volume. The sensing volume, also known as penetration depth, is an intrinsic property of the coupled light within the waveguide film, which creates an evanescent wave extending into the cell layer and the medium.

[3] = system: protease activated receptors PAR1 and PAR2; assay: Fluo-3 Ca2+ mobilization assay with PAR agonists; assay type: cell-based, human
Description: A431 at passage 3 to 5 were grown in Costar™ 96 well clear cell culture microplates until ˜95% confluency, washed twice and starved overnight with the DMEM only, washed with 1×HBSS (1× regular Hank's balanced salt solution, 20 mM HEPES buffer, pH 7.0) in the presence of 2.5 mM probenicid, and labeled in the same buffer containing 4 μM Fluo-3 for 1 hour at room temperature. The cells were then washed twice with buffer, maintained with 100 μl 1×HBSS containing 2.5 mM probenicid. The assay was initiated by transferring 50 μl PAR agonist solution to the cell plate, and calcium signal was recorded over 6 minutes with a 6 sec interval using HTS7000 BioAssay Reader (PerkinElmer Life Science, Boston, Mass.). The assays were carried out at room temperature in order to allow direct comparison with optical sensing data.

[4] = system: CHO cells; assay: Biosensor-based cell toxicity (real-time DMR, TM0 resonant peak and band image); design: species or system Chinese hamster; settings: for TM0 mode resonance band image: 25 min
Source text: Profiling compounds by virtue of their cytotoxic and anti-proliferative effects is often used to profile potential anticancer agents. One such phenotype is the compromise in plasma membrane integrity when cells are exposed to cytotoxic agents, including dimethyl sulfoxide (DMSO). Using a waveguide-based biosensor technique, the feasibility for monitoring the effect of DMSO on both Chinese hamster ovary (CHO) and A431 cells was examined. Approximately 10×10^5 cells were placed into each well of a Corning Epic LID microplate. These cells were cultured in serum medium for overnight to ensure that the cells became adherent to the substrate surface and reach at least 80% confluence. The response of cells to DMSO at different concentrations (1%, 2%, 5%, 10%, 15%, 18% and 20%) was examined. Higher concentrations of ˜≧25% of DMSO result in bulk index changes which are beyond the maximum dynamic range of the sensor used and the signal was lost. At least two sets of experiments were carried out for each cell line.
Both A431 and CHO-K1 cells were grown in Dulbecco's modified Eagle's medium (DMEM) supplemented with 10% fetal calf serum, 100 μg/ml penicillin, and 100 μg/ml streptomycin. For cell culture, ˜10×10^5 cells, either A431 or CHO-K1, were suspended in 200 μl medium were placed in each well of a 96 well Corning Epic Biosensor microplate, and were cultured at 37° C. in air/5% CO2 for overnight. Before the assays, the cells were washed once with the corresponding medium. During the assays, the cells in 100 μl medium were subject to two 25 μl HBSS buffer solutions containing 20 mM HEPES, pH 7.4, each separated by at least 15 minutes before 50 μl DMSO solution was applied. During all these steps, a parallel angular interrogation system was used to monitor the real time kinetics of cellular responses.
In one embodiment, the present invention provides a method for high throughput screening compound toxicity on cells using optical biosensors, which comprises of: (a) Provide a microplate that there is an optical-based label free biosensor embedded in the bottom of each well; (b) Place cells into each well to cover the biosensor such that the cells attach and reach high confluency onto the surface of the biosensor; (c) Apply a compound solution into the cell medium of each well; (e) Collect optical waveguide lightmode spectra at certain time. Comparing the PWHM of each compound with a control well wherein the cells are not exposed to any compound solution, the toxicity of compounds can be evaluated using the single data point. If necessary, time-dependent PWHM changes can be also recorded to study the kinetics.
In another embodiment, the present invention provides alternative methods to evaluate compound toxicity, which comprises of: (a) Provide a microplate that there is an optical-based label free biosensor embedded in the bottom of each well; (b) Place cells into each well to cover the biosensor such that the cells attach and reach desired confluency onto the surface of the biosensor; (c) Apply a compound solution into the cell medium of each well; (e) Collect images of TM0 mode resonance angular band of the whole sensor area of each well at certain time. Comparing the widths of the resonant bands of sensors that have been treated with a compound solution with that of a control well wherein the cells are not exposed to any compound solution; the toxicity of compounds can be evaluated.

[5] = system: EGF-induced response of quiescent A431 cells; assay: Effect of compound pretreatment on EGF-induced DMR response; assay type: cell-based, human; settings: for Effect of pretreatment on 32 nM EGF-induced response: quiescent A431 cells
Description: Both A431 and CHO-K1 cells were grown in Dulbecco's modified Eagle's medium (DMEM) supplemented with 10% fetal calf serum, 100 μg/ml penicillin, and 100 μg/ml streptomycin. For cell culture, certain numbers of cells (2×10^5 to 1×10^6), either A431 or CHO-K1, were suspended in […] medium were placed in each well of a 96 well Corning Epic Biosensor microplate, and were cultured at 37° C. in air/5% CO2 for certain time until the cell density reached ˜90% and above (unless specified). The resulted cells were termed as “profilerating” cells. The “quiescent” cells were obtained by culturing the profilerating cells of desired confluencies with a medium containing no or little (˜0.1% fetal bovine serum (FBS)) for at least 16 hours.
During the assays, the cells in 100 μl medium were subject to two 25 μl HBSS buffer containing 20 mM HEPES, pH 7.4, each separated by at least 15 minutes before 50 μl stimulus-containing solution was applied. During all these steps, a parallel angular interrogation system was used to monitor the real time kinetics of cellular responses. For compound effect studies, a modified protocol was used which starts with 50 μl medium, and subject to sequential treatment: 25 μl HBSS buffer twice (each separated by at least 15 minutes), 50 μl compound solution and finally 50 μl stimulus-containing solution.

[6] = system: quiescent A431 cells; assay: H2O2-induced DMR (reactive oxygen species signaling, redox state); assay type: cell-based, human; settings: for Effect on cell responses mediated with 1 mM H2O2: src kinase modulators; for DMR signal: 4 mM H2O2
Source text: In this study, all optical responses were monitored with a wavelength interrogation system. The RWG biosensor is comprised of three major components for bioassay applications: an Epic™ sensor microplate, an RWG detector, and a liquid handling system. The sensor microplate consists of a glass bottom plate attached to a plastic holy plate of a given SBS format (e.g., 96-well or 384-well), which enables high throughput screening. In a 96 well Epic™ sensor microplate, each well contains one RWG sensor of approximately 3×3 mm^2. The RWG sensor consists of a thin film of dielectric material on the grating presenting glass substrate.
The wavelength interrogation detector system is centered on integrated fiber optics. A broadband light source, generated through a fiber optic and a collimating lens at nominally normal incidence through the bottom of the microplate, is used to illuminate a small region of the grating surface. A detection fiber for recording the reflected light is bundled with the illumination fiber. A series of 8 illumination/detection heads are arranged in a linear fashion, so that reflection spectra are collected from all 8 wells within the same column of a microplate at once. With the spatial-controlled movement, the whole plate is moving across the illumination/detection heads so that each sensor can be addressed multiple times, and each column be addressed in sequence. A series of spectra of the reflected lights are collected and used for analysis. Since this detection system measures the wavelength shift of the reflected lights induced by the cell response in response to stimulation, this approach is referred to the wavelength interrogation system.

[7] = molecular target: T1, protease activated receptors PAR1 and PAR2 (Homo sapiens, UniProt P25116); assay type: cell-based; settings: 40 unit/ml thrombin; modulators 10 μM
T1 construct: A431 cells which endogenously express PAR1 and PAR2; endogenous in cells; host or cells: A431
T1 sequence (P25116 22-425): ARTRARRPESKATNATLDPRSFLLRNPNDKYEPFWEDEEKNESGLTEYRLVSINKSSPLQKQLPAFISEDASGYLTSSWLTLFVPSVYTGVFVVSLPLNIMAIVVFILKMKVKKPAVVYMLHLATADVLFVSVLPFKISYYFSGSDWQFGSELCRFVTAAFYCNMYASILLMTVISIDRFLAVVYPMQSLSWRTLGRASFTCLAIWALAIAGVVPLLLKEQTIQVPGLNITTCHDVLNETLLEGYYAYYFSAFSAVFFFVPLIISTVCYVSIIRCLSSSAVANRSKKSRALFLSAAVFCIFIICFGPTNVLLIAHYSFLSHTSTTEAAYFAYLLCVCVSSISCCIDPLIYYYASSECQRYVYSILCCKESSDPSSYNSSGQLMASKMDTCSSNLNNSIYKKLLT
Description: as §1, §2

SFFLR-amide [PAR1-AP]
Effect of preceding stimulation on trypsin-induced DMR signal ([1]; interval about 1 hour): significantly suppresses but not completely eliminates the trypsin-induced DMR signal
Class of optical signature (DMR) induced by agonist [2]: first class of optical signatures
Effect of preceding stimulation on trypsin-induced [Ca2+]i elevation ([3]; interval 6 min, 200 nM trypsin): significantly attenuated but not completely eliminates the trypsin-induced [Ca^2+]i elevation
Maximal [Ca2+]i elevation ([3]; quiescent A431, Fluo-3): 74.3±3.9%
[Ca2+]i elevation after preceding stimulation with thrombin ([3]; thrombin 40 unit/ml first, interval 6 min): 32±4.3%

C[S+](C)[O-] [DMSO, dimethyl sulfoxide]
TM0 mode resonance band image ([4]; 18% DMSO, confluency above 70%): DMSO-induced resonance band broadening
PWHM of TM0 resonant peak over time ([4]; 18% DMSO, cell density below ~25%): no change in the PWHM value over time
PWHM of TM0 resonant peak over time ([4]; 18% DMSO, confluency >70%): an initial increase in PWHM followed by decreasing PWHM value
DMSO-induced time-dependent response of cell layer, event D ([4]; DMSO 20%): a prolonged and decreased signal due to the loss of proteins or other biological molecules of cells caused by the toxicity of high concentrations of DMSO
DMSO-induced time-dependent response of cell layer ([4]; DMSO concentration <20%): the response is almost featureless
TM0 mode resonance band image ([4]; ~15% DMSO, ~95% confluency): a second resonance band appearing
TM0 mode resonance band image, dependence on DMSO concentration ([4]; ~95% confluency, 25 min treatment): only higher concentrations cause significant cell toxicity
Effect of pretreatment on 32 nM EGF-induced response [5]: a little effect on the EGF-induced response

Cc1ccc(-c2nn(C(C)(C)C)c3ncnc(N)c23)cc1 [PP1]
Effect on cell responses mediated with 1 mM H2O2 [6]: significantly suppressed the H2O2-mediated cell responses
Effect of pre-treatment on EGF-induced P-DMR and N-DMR signals ([5]; starved A431 cells, 8 nM EGF, 30-minute pretreatment, GH 0.5 ng/ml, PD98059 0.1 mM, PP1 1 μM, wortmannin 0.1 μM, DIP 50 μM): significantly reduced both the binding and DMR signals

CC(C)(C)n1nc(-c2ccc(Cl)cc2)c2c(N)ncnc21 [PP2]
Effect on cell responses mediated with 1 mM H2O2 [6]: significantly suppressed the H2O2-mediated cell responses

Nc1ncnc2c1cnn2-c1ccccc1 [PP3]
Effect on cell responses mediated with 1 mM H2O2 [6]: did not affect the responses

OO [H2O2, hydrogen peroxide]
DMR signal (shift in incident angle) ([6]; 1 mM H2O2): triggered significant mass redistribution within the sensing volume of the sensors
PWHM of resonant peak of TM0 mode ([6]; 1 mM H2O2): slightly increased the PWHM of the resonant peak of TM0 mode
DMR signal ([6]; high redox state cells): a characteristic of cells undergoing apoptosis
DMR signal ([6]; low redox state cells): a typical DMR signal for the low redox state of cells
DMR signal and Live/Dead cell staining ([6]; H2O2 at or above 16 mM): the cells treated with high doses of H2O2 undergo apoptosis
DMR signal (wavelength shift) ([6]; H2O2 at or below about 8 mM): a typical curve that consists of two major events: an initial peak and a prolonged increased mass signal

C/C1=C/C(=O)O[C@@H]2C[C@@H](CC[C@H](C)/C=C\C=C\CC1)O[C@@](O)([C@@H]1CSC(=O)N1)C2 [latrunculin A]
Effect of pretreatment on trypsin-mediated DMR signal [1]: completely blocked either thrombin- or trypsin-mediated DMR signal
Effect of pretreatment on thrombin-mediated DMR signal [7]: completely blocked either thrombin- or trypsin-mediated DMR signal
Effect of pretreatment on 32 nM EGF-induced response [5]: totally abolished the N-DMR signal

COC(=O)Nc1nc2ccc(C(=O)c3cccs3)cc2[nH]1 [nocodazole]
Effect of pretreatment on trypsin-mediated DMR signal [1]: neither a stabilizing polymeric F-actin agent phalloidin nor a microtubule disrupter nocodazole had significant effect
Effect of pretreatment on thrombin-mediated DMR signal [7]: neither a stabilizing polymeric F-actin agent phalloidin nor a microtubule disrupter nocodazole had significant effect
Effect of pretreatment on 32 nM EGF-induced response [5]: hardly any effect on the EGF-induced response

CN(C)CCCn1cc(C2=C(c3c[nH]c4ccccc34)C(=O)NC2=O)c2ccccc21 [GF 109203x]
Effect of pretreatment on trypsin-mediated DMR signal [1]: no obvious effect on both thrombin- and trypsin-mediated DMR signal
Effect of pretreatment on thrombin-mediated DMR signal [7]: no obvious effect on both thrombin- and trypsin-mediated DMR signal
Effect of pretreatment on 32 nM EGF-induced response [5]: partial attenuation on the response
